Structures can show the parent of a compound that is named as a salt. Where two headings read alike, the source gives them in different places.
Tests used:
[1] = system: primary cortico-hippocampal neuron cultures; test: lactate dehydrogenase (LDH) activity assay in parallel neuron cultures; details: for LDH (at 5F-5 M): Table IV; for LDH at E-5M % of change: drug at E-5M
Aβ1-42 [2] = test: Aβ1-42 content in conditioned medium of primary cortico-hippocampal neuron cultures from Tg2576 mice (ELISA; primary and secondary dose-response screening); format: cell-based, mouse; details: for Ab1-42 (% of ctl) / activity at 100 µM: drug 100 μM; for activity at 100 µM: Mus musculus, Neuron, 24 h, read-out: Ab1-42 (% of ctl); for reducing Aβ1-42: <85% of ctl
In short: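 This screen tested cardiovascular drugs for Aβ-lowering in Tg2576 embryonic cortico-hippocampal neuron cultures plated at 1.0×10^5 cells per well in poly-D-lysine-coated 96-well plates with Neurobasal/B27 medium. Drugs at 100 μM were added directly to the medium in duplicate, with 1% DMSO alone as the control. Conditioned medium was then collected, and its Aβ1-42 level was quantified with BioSource ELISA kits.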

Aβ1-42 [3] = test: as above; format: cell-based, mouse; details: Mus musculus; for activity at 100 µM: primary screening, drug 100 μM, Tg2576 neuron cultures, table sorted by Aβ1-42, read-out: Ab1-42 (% of ctl); for EC50: Neuron
Aβ1-40 = Aβ1-40 content in conditioned medium of primary cortico-hippocampal neuron cultures from Tg2576 mice (ELISA; primary and secondary dose-response screening); format: cell-based, mouse; details: for activity at 100 µM / EC50: Mus musculus; for activity at 100 µM: 24 h, read-out: Ab1-40 (% of ctl); for activity at 100 µM / Ab1-40 (% of ctl): drug 100 μM; for reduced Aβ1-40: <85% of ctl
In short: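 Primary cortico-hippocampal neurons from embryonic Tg2576 mice were plated at 1.0×10^5 cells per well on poly-D-lysine-coated 96-well plates in Neurobasal with 2% B27, 0.5 mM L-glutamine and 1% penicillin-streptomycin. Cultures received drug in 1% DMSO, and Aβ1-40 in the conditioned medium was measured by BioSource ELISA 24 hours after treatment, relative to vehicle controls.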

[4] = system: primary cortico-hippocampal neuron cultures; test: MTT in primary screening
[5] = Primary Screening, table sorted by Aβ1-40
[6] = primary screening, table sorted by Aβ1-42
[7] = primary screening, Tg2576 neuron cultures, table sorted by Aβ1-42
[8] = 24 h, secondary dose-response screening 0.01-100 μM, 24 hours, read-out: EC50 (molar) Aβ1-42
[9] = Table IV, dose-response 0.01-100 μM, read-out: EC50 (M): Ab-lowering activity
[10] = Neuron, Primary Screening, table sorted by Aβ1-40
[11] = Neuron, primary screening, Tg2576 neuron cultures, table sorted by Aβ1-42
[12] = Neuron, Table IV, dose-response 0.01-100 μM, read-out: EC50 (M): Ab-lowering activity Abeta1-40
[13] = Neuron, secondary dose-response screening 0.01-100 μM, 24 hours, read-out: EC50 (molar) Aβ1-40
[14] = 24 h, conditioned medium of primary cortico-hippocampal neuron cultures from Tg2576 embryos, 24 hours after treatment, relative to vehicle (1% DMSO) control, read-out: EC50 (molar) Aβ1-42

| LDH (% of ctl) [1, 5] | LDH (% of ctl) [1, 6] | LDH at E-5M % of change [1] [%] | MTT (% of ctl) [4, 5] | MTT (% of ctl) [4, 6] | EC50 (Aβ1-42 [3]; [8]) [M] | EC50 (Aβ1-40; [13]) [M] | SMILES | Ab1-42 (% of ctl) (Aβ1-42 [2]; [5]) | activity at 100 µM (Aβ1-42 [3]; 24 h) [%] | activity at 100 µM (Aβ1-40; [7]) [%] | Ab1-40 (% of ctl) (Aβ1-40; [5]) | reduced Aβ1-40 (Aβ1-40; primary screening) | activity at 100 µM (Aβ1-42 [2]; [5]) [%] | activity at 100 µM (Aβ1-42 [2]; [7]) [%] | reducing Aβ1-42 (Aβ1-42 [2]; primary screening) | activity at 100 µM (Aβ1-40; [10]) [%] | activity at 100 µM (Aβ1-40; [11]) [%] | other results |
| --- | --- | --- | --- | --- | --- | --- | --- | --- | --- | --- | --- | --- | --- | --- | --- | --- | --- | --- |
| 101.1 % of ctl | 101.1 % of ctl | −1.2 | 95.7 % of ctl | 95.7 % of ctl | 1.04e-05 | 9.29e-06 | NNc1nncc2ccccc12 [Hydralazine Hydrochloride] | – | – | – | – | reduced Aβ1-40 | 63.2 | 63.2 | useful in reducing Aβ1-42 | 66.1 | 66.1 | LDH (at 5F-5 M) [1]: no change; EC50 (Aβ1-42 [3]; [9]): 1.04e-05 M; EC50 (Aβ1-40; [12]): 9.29e-06 M |
| 107.5 % of ctl | 107.5 % of ctl | 6.4 | 102.7 % of ctl | 102.7 % of ctl | 1.24e-06 | 1.66e-05 | OCCN(CCO)c1nc(N2CCCCC2)c2nc(N(CCO)CCO)nc(N3CCCCC3)c2n1 [Dipyridamole] | – | – | – | – | reduced Aβ1-40 | 62.6 | 62.6 | useful in reducing Aβ1-42 | 72.2 | 72.2 | – |
| 90.7 % of ctl | 90.7 % of ctl | −3.4 | 110.3 % of ctl | 110.3 % of ctl | 8.65e-08 | 1.21e-05 | Cc1ccc(N(CC2=NCCN2)c2cccc(O)c2)cc1 [Phentolamine Hydrochloride] | – | – | – | – | reduced Aβ1-40 | 72.9 | 72.9 | useful in reducing Aβ1-42 | 83.4 | 83.4 | – |
| 72.5 % of ctl | 72.5 % of ctl | −5.6 | 95.3 % of ctl | 95.3 % of ctl | 4.05e-09 | – | CCC[C@H](N[C@@H](C)C(=O)N1[C@H](C(=O)O)C[C@@H]2CCCC[C@@H]21)C(=O)OCC [Perindopril Erbumine] | – | – | – | – | reduced Aβ1-40 | 88.8 | 88.8 | – | 83.8 | 83.8 | EC50 (Aβ1-42 [3]; [14]): 4.5e-09 M; EC50 (molar) Aβ1-40 (Aβ1-40; conditioned medium of primary cortico-hippocampal neuron cultures from Tg2576 embryos, 24 hours after treatment, relative to vehicle (1% DMSO) control): no fit; EC50 (molar) Aβ1-40 (Aβ1-40; secondary dose-response screening 0.01-100 μM, 24 hours): no fit |
| 104.7 % of ctl | 104.7 % of ctl | 6.4 | 80.8 % of ctl | 80.8 % of ctl | 0.039 | 8.67e-05 | N=C(N)NC(=O)c1nc(Cl)c(N)nc1N [Amiloride Hydrochloride] | – | – | – | – | reduced Aβ1-40 | 47.1 | 47.1 | useful in reducing Aβ1-42 | 77.5 | 77.5 | LDH (at 5F-5 M) [1]: no change; EC50 (Aβ1-42 [3]; [9]): 3.01e-05 M; EC50 (Aβ1-40; [12]): 8.67e-05 M |
| 164.0 % of ctl | 164.0 % of ctl | −5.0 | 93.0 % of ctl | 93.0 % of ctl | 7.19e-07 | 4.06e-09 | CC(CCc1ccccc1)NCC(O)c1ccc(O)c(C(N)=O)c1 (stereo not drawn) [Labetalol Hydrochloride] | – | – | – | – | reduced Aβ1-40 | 106 | 106 | – | 84.9 | 84.9 | EC50 (Aβ1-42 [3]; [14]): 7.19e-07 M |
| 148.6 % of ctl | 148.6 % of ctl | – | 66.7 % of ctl | 66.7 % of ctl | 0.000132 | 6.61e-05 | COc1ccccc1OCCNCC(O)COc1cccc2[nH]c3ccccc3c12 (stereo not drawn) [Carvedilol] | – | – | – | – | reduced Aβ1-40 | 30.8 | 30.8 | useful in reducing Aβ1-42 | 38.3 | 38.3 | LDH (at 5F-5 M) [1]: no change; EC50 (Aβ1-42 [3]; [14]): 0.000132 M; EC50 (Aβ1-42 [3]; [9]): 0.000132 M; EC50 (Aβ1-40; [12]): 6.61e-05 M |
| 260.2 % of ctl | 260.2 % of ctl | 5.0 | 99.9 % of ctl | 99.9 % of ctl | 6.76e-05 | 0.000571 | COc1cc2nc(N3CCN(C(=O)c4ccco4)CC3)nc(N)c2cc1OC [Prazosin Hydrochloride] | – | – | – | – | reduced Aβ1-40 | 23.2 | 23.2 | useful in reducing Aβ1-42 | 7.6 | 7.6 | EC50 (Aβ1-42 [3]; [14]): 6.76e-05 M |
| 103.5 % of ctl | 103.5 % of ctl | – | 99.5 % of ctl | 99.5 % of ctl | – | – | CCOC(=O)[C@H](CCc1ccccc1)N[C@H]1CCc2ccccc2N(CC(=O)O)C1=O [Benazepril Hydrochloride] | – | – | – | – | – | 115 | 115 | – | 116 | 116 | – |
| 112.0 % of ctl | 112.0 % of ctl | – | 97.8 % of ctl | 97.8 % of ctl | – | – | CC1=NS(=O)(=O)c2cc(Cl)ccc2N1 [Diazoxide] | – | – | – | – | – | 98.9 | 98.9 | – | 114 | 114 | – |

| SMILES | LDH (% of ctl) [1, 5] | LDH (% of ctl) [1, 6] | LDH at E-5M % of change [1] [%] | MTT (% of ctl) [4, 5] | MTT (% of ctl) [4, 6] | EC50 (Aβ1-42 [3]; [8]) [M] | EC50 (Aβ1-40; [13]) [M] | Ab1-42 (% of ctl) (Aβ1-42 [2]; [5]) | activity at 100 µM (Aβ1-42 [3]; 24 h) [%] | activity at 100 µM (Aβ1-40; [7]) [%] | Ab1-40 (% of ctl) (Aβ1-40; [5]) | reduced Aβ1-40 (Aβ1-40; primary screening) | activity at 100 µM (Aβ1-42 [2]; [5]) [%] | activity at 100 µM (Aβ1-42 [2]; [7]) [%] | reducing Aβ1-42 (Aβ1-42 [2]; primary screening) | activity at 100 µM (Aβ1-40; [10]) [%] | activity at 100 µM (Aβ1-40; [11]) [%] | other results |
| --- | --- | --- | --- | --- | --- | --- | --- | --- | --- | --- | --- | --- | --- | --- | --- | --- | --- | --- |
| COc1ccc(CCN(C)CCCC(C#N)(c2ccc(OC)c(OC)c2)C(C)C)cc1OC (stereo not drawn) [Verapamil] | 92.5 % of ctl | 92.5 % of ctl | – | – | – | – | – | 101.1 % of ctl | 101 | 70.9 | 70.9 % of ctl | reduced Aβ1-40 | – | – | – | – | – | – |
| CC(COc1ccccc1)N(CCCl)Cc1ccccc1 (stereo not drawn) [Phenoxybenzamine Hydrochloride] | 81.3 % of ctl | 81.3 % of ctl | – | 72.8 % of ctl | 72.8 % of ctl | – | – | 90.7 % of ctl | 90.7 | 87.5 | 87.5 % of ctl | – | – | – | – | – | – | – |
| C[C@]12CC[C@H]3[C@@H](CC[C@]4(O)C[C@@H](O)CC[C@]34C=O)[C@@]1(O)CC[C@@H]2C1=CC(=O)OC1 [Strophanthidin] | 119.4 % of ctl | 119.4 % of ctl | – | 99.2 % of ctl | 99.2 % of ctl | – | – | 88.6 % of ctl | 88.6 | 108 | 107.5 % of ctl | – | – | – | – | – | – | – |
| C[C@H]1O[C@@H](O[C@H]2[C@@H](O)C[C@H](O[C@H]3[C@@H](O)C[C@H](O[C@H]4CC[C@@]5(C)[C@H](CC[C@@H]6[C@@H]5CC[C@]5(C)[C@@H](C7=CC(=O)OC7)CC[C@]65O)C4)O[C@@H]3C)O[C@@H]2C)C[C@H](O)[C@@H]1O [Digitoxin] | 106.4 % of ctl | 106.4 % of ctl | – | 86.0 % of ctl | 86.0 % of ctl | – | – | 92.9 % of ctl | 92.9 | 68.3 | 68.3 % of ctl | reduced Aβ1-40 | – | – | – | – | – | – |
| CO[C@H]1[C@H](O)[C@H](O[C@H]2CC[C@@]3(C=O)[C@H](CC[C@@H]4[C@@H]3CC[C@]3(C)[C@@H](C5=CC(=O)OC5)CC[C@]43O)C2)O[C@@H](C)[C@@H]1O [Peruvoside] | 105.5 % of ctl | 105.5 % of ctl | – | 98.8 % of ctl | 98.8 % of ctl | – | – | 90.9 % of ctl | 90.9 | 115 | 115.3 % of ctl | – | – | – | – | – | – | – |

Reference: patent US20100029654A1, “CARDIOVASCULAR COMPOSITIONS AND USE OF THE SAME FOR THE TREATMENT OF ALZHEIMER'S DISEASE” (MOUNT SINAI SCHOOL OF MEDICINE, priority 2006, published 2010)
